Laboratory results as given in PubChem BioAssay (NCI).
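Compound exposure: 48 hours, 5 concentrations, 96-well plates. TGI is the concentration that stops growth completely.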

Key:
Assay in all cases: growth of human tumour cells (NCI), 48 h
[1] = test system: MOLT-4 leukemia
[2] = test system: HOP-92 NSCLC
[3] = test system: SNB-19 CNS
[4] = test system: SK-MEL-28 melanoma
[5] = test system: T-47D breast
[6] = test system: HS 578T breast
[7] = test system: TK-10 renal
[8] = test system: KM12 colon
[9] = test system: OVCAR-5 ovarian
[10] = test system: SW-620 colon
[11] = test system: SK-OV-3 ovarian
[12] = test system: ACHN renal
[13] = test system: U251 CNS
[14] = test system: UACC-62 melanoma
[15] = test system: HT29 colon
[16] = test system: A549 NSCLC
[17] = test system: 786-0 renal
[18] = test system: OVCAR-3 ovarian
[19] = test system: RXF 393 renal
[20] = test system: K-562 leukemia

SMILES	TGI [1] [µM]	TGI [2] [µM]	TGI [3] [µM]	TGI [4] [µM]	TGI [5] [µM]	TGI [6] [µM]	TGI [7] [µM]	TGI [8] [µM]	TGI [9] [µM]	TGI [10] [µM]	TGI [11] [µM]	TGI [12] [µM]	TGI [13] [µM]	TGI [14] [µM]	TGI [15] [µM]	TGI [16] [µM]	TGI [17] [µM]	TGI [18] [µM]	TGI [19] [µM]	TGI [20] [µM]
O=C(O)C1CCCN1Cc1ccc2c(c1)OCO2 (stereo not drawn)	> 100	> 100	> 100	> 100	> 100	> 100	> 100	> 100	> 100	> 100	> 100	> 100	> 100	> 100	> 100	> 100	> 100	> 100	> 100	> 100
Cn1c(=O)c2c(nc3sc4ncccc4c(=O)n32)n(C)c1=O	> 100	> 100	> 100	> 100	> 100	> 100	> 100	> 100	> 100	> 100	> 100	> 100	> 100	> 100	> 100	–	> 100	> 100	> 100	–
COc1cc(OC)nc(NC(=O)NS(=O)(=O)c2cccc3ncn(C)c(=O)c23)n1	> 100	> 100	> 100	–	> 100	> 100	> 100	–	> 100	> 100	> 100	> 100	> 100	> 100	> 100	> 100	> 100	> 100	> 100	> 100
CC1(c2nc3cc(Cl)c(Cl)cc3[nH]2)CCC(C(=O)O)C(C)(C)O1 (stereo not drawn)	> 100	> 100	> 100	> 100	> 100	> 100	> 100	> 100	> 100	> 100	> 100	> 100	> 100	> 100	> 100	> 100	> 100	> 100	> 100	> 100
CN(C)C1COC2Cc3ccccc3C1O2 (stereo not drawn)	> 100	> 100	> 100	> 100	> 100	> 100	> 100	> 100	> 100	> 100	> 100	> 100	> 100	> 100	> 100	> 100	> 100	> 100	> 100	> 100
CCOC(=O)c1cc(C2(OC)CCN(Cc3ccccc3)C2=O)c(-c2cc(C)no2)[nH]1 (stereo not drawn)	> 100	> 100	> 100	> 100	> 100	> 100	> 100	> 100	> 100	> 100	> 100	> 100	> 100	> 100	> 100	> 100	> 100	> 100	> 100	> 100
CCCC[Si](CCCC)(CCCC)O[C@@H](/C=C/C(=O)OCC)[C@H](Cc1ccccc1)O[Si](CCCC)(CCCC)CCCC	> 100	> 100	> 100	–	> 100	> 100	> 100	> 100	> 100	> 100	> 100	> 100	> 100	> 100	> 100	> 100	> 100	–	> 100	> 100
O=C(NO)c1ccc(OCc2ccccc2)cc1	> 100	> 100	> 100	> 100	81.5	> 100	> 100	> 100	> 100	> 100	> 100	88.8	> 100	36.5	> 100	> 100	55.3	> 100	> 100	> 100
CC[C@@H]1C[C@@H](O)[C@@H]2[C@H](O)[C@H](O)CN2C1	> 100	> 100	> 100	> 100	> 100	> 100	> 100	> 100	> 100	> 100	> 100	> 100	> 100	> 100	> 100	> 100	> 100	> 100	–	> 100
O=C1NCN(c2ccccc2)C12CCN(CCCSc1ccc(F)cc1)CC2	> 100	41.6	> 100	> 100	> 100	> 100	99.1	65.4	> 100	> 100	> 100	> 80.5	> 100	> 69	19.4	> 100	> 100	> 100	> 100	> 79.2
CC1=NN(c2ccccc2)C(=O)C1C(=O)C(=O)Nc1ccc(C)cc1C (stereo not drawn)	> 100	> 100	> 100	> 100	> 100	> 100	> 100	> 100	> 100	> 100	> 100	> 100	> 100	> 100	> 100	> 100	> 100	> 100	> 100	> 100
CN(C)CC1CN(C(=O)Nc2ccccc2)C(=N)O1 (stereo not drawn)	> 100	> 100	> 100	> 100	> 100	> 100	> 100	> 100	> 100	> 100	> 100	> 100	> 100	> 100	> 100	> 100	> 100	> 100	> 100	> 100
Cc1ccc2cccc(OC(=O)c3cc4c(cc3Cl)Sc3nccn3S4(=O)=O)c2n1	19.8	68	46.3	30.8	13	> 100	30.9	18.7	> 61.2	40.3	84.2	38.7	16.6	32.6	44.5	28.5	43.6	11.6	20.5	23.9
Cc1ccc(S(=O)(=O)N/N=C2/CC[C@H](C(C)(C)C)C[C@@H]2C)cc1	31.1	33.4	32.6	32.8	25.5	45.1	30.4	49.7	32.5	50.7	36.6	30.3	33.5	31.4	30.7	33.4	31.8	25.2	–	42.1
CC1(C)OC([C@H](O)CO)C([C@H]2NCCS2)O1 (stereo partly drawn)	> 100	> 100	> 100	> 100	> 100	> 100	> 100	> 100	> 100	> 100	> 100	> 100	> 100	> 100	> 100	> 100	> 100	> 100	> 100	> 100
C/C(=C\[C@H]1C[C@@H]([C@@H]2CC[C@]34C[C@]23C=C[C@@H]2[C@@]3(C)CC=C5C[C@@H](c6ccccc6)OC[C@]5(C)[C@@H]3C[C@@H](O)[C@]24C)C(=O)O1)CO	> 100	28.1	> 86.7	> 100	> 100	> 72.2	> 56	15.3	34.2	> 100	> 61.8	34.8	> 100	> 71.2	7.85	> 100	> 100	> 100	> 100	> 100
CCOC(=O)C1C(=O)CC(C)(O)C(C(=O)OCC)C1c1ccc(OC)cc1 (stereo not drawn)	> 100	> 100	> 100	> 100	> 100	> 100	> 100	> 100	> 100	> 100	–	> 100	> 100	> 100	> 100	> 100	> 100	> 100	> 100	> 100
O=C(CN1C(=O)c2ccccc2C1=O)OCC1CCCN2CCCCC12 (stereo not drawn)	> 100	> 100	> 100	> 100	> 100	> 100	> 100	> 100	–	> 100	> 100	> 100	> 100	> 100	> 100	> 100	> 100	–	> 100	> 100
CC1CC(=O)NC2CC1C2(C)C (stereo not drawn)	> 100	> 100	> 100	> 100	> 100	> 100	> 100	> 100	> 100	> 100	–	> 100	> 100	> 100	> 100	> 100	> 100	> 100	> 100	> 100
CC(=O)OCC(OC(C)=O)C(OC(C)=O)C(OC(C)=O)C(/C=N\Nc1nc2ccccc2c(=O)[nH]1)OC(C)=O (stereo not drawn)	> 100	> 100	> 100	> 100	> 100	> 100	–	> 100	> 100	> 100	> 100	> 100	> 100	> 100	> 100	> 100	> 100	> 100	> 100	> 100
COc1ccc(N=C2C(=Nc3ccc(OC)cc3)N(c3ccccc3[N+](=O)[O-])C(=S)N2c2ccc(OC)cc2)cc1	> 100	> 100	> 100	> 100	> 100	> 100	> 100	> 100	> 100	> 100	> 100	> 100	> 100	> 100	–	> 100	> 100	> 100	> 100	> 100
CC(C)(C)OC(=O)N1C(=O)OC[C@@H]2C=C[C@@H]21	> 100	> 100	> 100	> 100	> 100	> 100	> 100	> 100	> 100	> 100	> 100	> 100	> 100	> 100	> 100	> 100	> 100	> 100	> 100	–
O=C1c2cccnc2-c2nccc3ccnc1c23	0.756	2.36	10.9	2.58	1.77	> 28.3	–	2.66	4.2	1.78	2.9	1.46	3.49	1.88	2.09	6.82	2.04	1.49	2.52	0.666
O=C(CN1CCCC1)Nc1ccc2sc3ccccc3c(=O)c2n1	15.6	74.6	> 100	39.7	> 100	52.1	> 100	44.2	62.3	33.6	58.7	31.7	46.3	36.6	> 100	38.8	48.1	> 100	–	46.7
